Reference: patent US9227971B2, “Pyrazolo[1,5-a]pyrimidine compounds as mTOR inhibitors” (Merck Sharp & Dohme Corp., priority 2010, dated 2016)

What was measured:
[1] = system: phosphorylated AKT Ser473 (pAKT S473), mTORC2 activity, PC3 cells; assay: mTOR target engagement assay, immunofluorescent cell-based, pAKT S473 readout (mTORC2 activity); details: Homo sapiens, PC-3, PC3 cells, compound treatment ninety minutes at 37° C.
How it was run: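 After blocking, cells were stained overnight at 4 °C with anti-pAKT S473 antibody, then a fluorescent secondary; inhibition was read as reduced fluorescence intensity.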

[2] = system: phosphorylated 4E-BP1 Thr37/46 (p4E-BP1 Thr37/46), mTORC1 activity, PC3 cells; assay: mTOR target engagement assay, immunofluorescent cell-based, p4E-BP1 Thr37/46 readout (mTORC1 activity); details: Homo sapiens, PC-3, PC3 cells, compound treatment ninety minutes at 37° C.; read-out: p4E-BP1 Thr37/46 IC50
How it was run: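 Seed PC3 cells overnight; treat with compound dilutions for ninety minutes at 37° C; fix with glyoxal and block; stain with anti-p4E-BP1 Thr37/46 overnight at 4° C, then fluorescent secondary; read fluorescence and fit IC50 against DMSO-only controls.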

| Compound | IC50 [1] [nM] | IC50 [2] [nM] |
| --- | --- | --- |
| CC(=O)c1c([C@@H]2C[C@H]3CC[C@@H](C2)N3C(=O)c2nnc[nH]2)nc2c(-c3ccc(-c4cccc(F)c4)nc3)cnn2c1N [Compound 1.1.103, 1-(5-((1R,3r,5S)-8-(4H-1,2,4-triazole-3-carbonyl)-8-azabicyclo[3.2.1]octan-3-yl)-7-amino-3-(6-(3-fluorophenyl)pyridin-3-yl)pyrazolo[1,5-a]pyrimidin-6-yl)ethanone] | 1 to 100 | 1 to 100 |
| CC(=O)c1c([C@@H]2C[C@H]3CC[C@@H](C2)N3C(=O)c2nnc[nH]2)nc2c(-c3ccc(C(F)(F)F)nc3)cnn2c1N [Compound 1.1.104, 1-(5-((1R,3s,5S)-8-(4H-1,2,4-triazole-3-carbonyl)-8-azabicyclo[3.2.1]octan-3-yl)-7-amino-3-(6-(trifluoromethyl)pyridin-3-yl)pyrazolo[1,5-a]pyrimidin-6-yl)ethanone] | 100 to 1000 | 100 to 1000 |
| CC(=O)c1c([C@@H]2C[C@H]3CC[C@@H](C2)N3C(=O)CO)nc2c(-c3ccc(-c4cccc(F)c4)nc3)cnn2c1N [Compound 1.1.105, 1-((1R,3r,5S)-3-(6-acetyl-7-amino-3-(6-(3-fluorophenyl)pyridin-3-yl)pyrazolo[1,5-a]pyrimidin-5-yl)-8-azabicyclo[3.2.1]octan-8-yl)-2-hydroxyethanone] | 100 to 1000 | 100 to 1000 |
| CC(=O)c1c([C@@H]2C[C@H]3CC[C@@H](C2)N3C(=O)c2nnc[nH]2)nc2c(-c3ccc(-c4nn(C)cc4F)nc3)cnn2c1N [Compound 1.1.106, 1-(5-((1R,3s,5S)-8-(4H-1,2,4-triazole-3-carbonyl)-8-azabicyclo[3.2.1]octan-3-yl)-7-amino-3-(6-(4-fluoro-1-methyl-1H-pyrazol-3-yl)pyridin-3-yl)pyrazolo[1,5-a]pyrimidin-6-yl)ethanone] | 1 to 100 | 1 to 100 |
| CC(=O)c1c([C@@H]2C[C@H]3CC[C@@H](C2)N3C(=O)c2nnc[nH]2)nc2c(-c3ccc(-c4cn(C)cn4)nc3)cnn2c1N [Compound 1.1.108, 1-(5-((1R,3s,5S)-8-(4H-1,2,4-triazole-3-carbonyl)-8-azabicyclo[3.2.1]octan-3-yl)-7-amino-3-(6-(1-methyl-1H-imidazol-4-yl)pyridin-3-yl)pyrazolo[1,5-a]pyrimidin-6-yl)ethanone] | 1000 to 10000 | 1000 to 10000 |
| CC(=O)c1c([C@@H]2C[C@H]3CC[C@@H](C2)N3C(=O)c2nnc[nH]2)nc2c(-c3cnc(-c4cc[nH]n4)c(F)c3)cnn2c1N [Compound 1.1.110, 1-(5-((1R,3s,5S)-8-(4H-1,2,4-triazole-3-carbonyl)-8-azabicyclo[3.2.1]octan-3-yl)-7-amino-3-(5-fluoro-6-(1H-pyrazol-3-yl)pyridin-3-yl)pyrazolo[1,5-a]pyrimidin-6-yl)ethanone] | 100 to 1000 | 100 to 1000 |
| CC(=O)c1c([C@@H]2C[C@H]3CC[C@@H](C2)N3C(=O)CO)nc2c(-c3cnc(-c4cc[nH]n4)c(F)c3)cnn2c1N [Compound 1.1.111, 1-((1R,3s,5S)-3-(6-acetyl-7-amino-3-(5-fluoro-6-(1H-pyrazol-3-yl)pyridin-3-yl)pyrazolo[1,5-a]pyrimidin-5-yl)-8-azabicyclo[3.2.1]octan-8-yl)-2-hydroxyethanone] | 1000 to 10000 | 1000 to 10000 |
| CC(=O)c1c([C@@H]2C[C@H]3CC[C@@H](C2)N3C(=O)c2nnc[nH]2)nc2c(-c3cnc(-c4ccn(C)n4)c(F)c3)cnn2c1N [Compound 1.1.112, 1-(5-((1R,3s,5S)-8-(4H-1,2,4-triazole-3-carbonyl)-8-azabicyclo[3.2.1]octan-3-yl)-7-amino-3-(5-fluoro-6-(1-methyl-1H-pyrazol-3-yl)pyridin-3-yl)pyrazolo[1,5-a]pyrimidin-6-yl)ethanone] | 1000 to 10000 | 1000 to 10000 |
| CC(=O)c1c([C@@H]2C[C@H]3CC[C@@H](C2)N3C(=O)c2nnc[nH]2)nc2c(-c3cnc(-c4ccn(C)n4)c(C)c3)cnn2c1N [Compound 1.1.114, 1-(5-((1R,3s,5S)-8-(4H-1,2,4-triazole-3-carbonyl)-8-azabicyclo[3.2.1]octan-3-yl)-7-amino-3-(5-methyl-6-(1-methyl-1H-pyrazol-3-yl)pyridin-3-yl)pyrazolo[1,5-a]pyrimidin-6-yl)ethanone] | 1000 to 10000 | 1000 to 10000 |
| CC(=O)C(=O)N1[C@@H]2CC[C@H]1C[C@H](c1nc3c(-c4ccc(-c5ccccc5)nc4)cnn3c(N)c1C(C)=O)C2 [Compound 1.1.117, 1-((1R,3s,5S)-3-(6-acetyl-7-amino-3-(6-phenylpyridin-3-yl)pyrazolo[1,5-a]pyrimidin-5-yl)-8-azabicyclo[3.2.1]octan-8-yl)propane-1,2-dione] | 100 to 1000 | 100 to 1000 |
| CC(=O)c1c([C@@H]2C[C@H]3CC[C@@H](C2)N3C(=O)C(N)=O)nc2c(-c3ccc(-c4ccccc4)nc3)cnn2c1N [Compound 1.1.118, 2-((1R,3s,5S)-3-(6-acetyl-7-amino-3-(6-phenylpyridin-3-yl)pyrazolo[1,5-a]pyrimidin-5-yl)-8-azabicyclo[3.2.1]octan-8-yl)-2-oxoacetamide] | 100 to 1000 | 100 to 1000 |
| CC(=O)c1c([C@@H]2C[C@H]3CC[C@@H](C2)N3C(=O)c2ccn[nH]2)nc2c(-c3ccc(-c4ccn(C)n4)nc3)cnn2c1N [Compound 1.1.121, 1-(5-((1R,3s,5S)-8-(1H-pyrazole-5-carbonyl)-8-azabicyclo[3.2.1]octan-3-yl)-7-amino-3-(6-(1-methyl-1H-pyrazol-3-yl)pyridin-3-yl)pyrazolo[1,5-a]pyrimidin-6-yl)ethanone] | 1 to 100 | 100 to 1000 |
| CC(=O)c1c([C@@H]2C[C@H]3CC[C@@H](C2)N3C(=O)N2CCOCC2)nc2c(-c3ccc(-c4ccccc4)nc3)cnn2c1N [Compound 1.1.122, 1-(7-amino-5-((1R,3s,5S)-8-(morpholine-4-carbonyl)-8-azabicyclo[3.2.1]octan-3-yl)-3-(6-phenylpyridin-3-yl)pyrazolo[1,5-a]pyrimidin-6-yl)ethanone] | 1000 to 10000 | 1000 to 10000 |
| CC(=O)c1c([C@@H]2C[C@H]3CC[C@@H](C2)N3C(=O)c2nnc[nH]2)nc2c(-c3cnn(-c4ccc(F)cc4)c3)cnn2c1N [Compound 1.1.123, 1-(5-((1R,3s,5S)-8-(4H-1,2,4-triazole-3-carbonyl)-8-azabicyclo[3.2.1]octan-3-yl)-7-amino-3-(1-(4-fluorophenyl)-1H-pyrazol-4-yl)pyrazolo[1,5-a]pyrimidin-6-yl)ethanone] | 100 to 1000 | 1000 to 10000 |
| COc1ccc(-c2ccc(-c3cnn4c(N)c(C(C)=O)c([C@@H]5C[C@H]6CC[C@@H](C5)N6C(=O)c5nnc[nH]5)nc34)cn2)cc1C#N [Compound 1.1.124, 5-(5-(5-((1R,3s,5S)-8-(4H-1,2,4-triazole-3-carbonyl)-8-azabicyclo[3.2.1]octan-3-yl)-6-acetyl-7-aminopyrazolo[1,5-a]pyrimidin-3-yl)pyridin-2-yl)-2-methoxybenzonitrile] | 100 to 1000 | 100 to 1000 |
| COc1ccc2ncc(-c3cnn4c(N)c(C(C)=O)c([C@@H]5C[C@H]6CC[C@@H](C5)N6C(=O)c5nnc[nH]5)nc34)cc2c1 [Compound 1.1.125, 1-(5-((1R,3s,5S)-8-(4H-1,2,4-triazole-3-carbonyl)-8-azabicyclo[3.2.1]octan-3-yl)-7-amino-3-(6-methoxyquinolin-3-yl)pyrazolo[1,5-a]pyrimidin-6-yl)ethanone] | 1000 to 10000 | 100 to 1000 |
